We go through four compounds from US4590271A, “2,4-diamino-5-(substituted)pyrimidines, useful as antimicrobials” (Burroughs Wellcome Co., priority 1982, dated 1986).

Converted amounts (≈) assume the structure as drawn.

One assay has as its system B. fragilis. Put plainly: Minimum inhibitory concentration in vitro, B. fragilis. The class given is cell-based. Conditions: Bacteroides fragilis, mean of 3 Strains, read-out: Minimum Inhibitory Concentrations.
A further assay relates to Esch. coli CN314. Nature of the assay: Minimum inhibitory concentration in vitro, Esch. coli CN314. Format: cell-based. The note with it: Escherichia coli, read-out: Minimum Inhibitory Concentrations.
A further assay has as its system St. agalactiae CN1143. Nature of the assay: Minimum inhibitory concentration in vitro, St. agalactiae CN1143. Format: cell-based. Conditions: Streptococcus agalactiae, read-out: Minimum Inhibitory Concentrations.
For the next assay, the system named is St. pyogenes CN10. Nature of the assay: Minimum inhibitory concentration in vitro, St. pyogenes CN10. Format: cell-based. Conditions: Streptococcus pyogenes, read-out: Minimum Inhibitory Concentrations.
A further assay relates to Staph. aureus CN491. Nature of the assay: Minimum inhibitory concentration in vitro, Staph. aureus CN491. The class given is cell-based. The note with it: Staphylococcus aureus, read-out: Minimum Inhibitory Concentrations.
The next assay deals with St. faecalis CN478. Nature of the assay: Minimum inhibitory concentration in vitro, St. faecalis CN478. Format: cell-based. Conditions: Enterococcus faecalis, read-out: Minimum Inhibitory Concentrations.
The next assay deals with N. gonorrhoeae. Put plainly: Minimum inhibitory concentration in vitro, N. gonorrhoeae. The class given is cell-based. Conditions: Neisseria gonorrhoeae, mean of 17 strains, read-out: Minimum Inhibitory Concentrations.
In another assay the test system is bacterial. The note with it: amongst the 2,4-diamino-5-benzylpyrimidines known to date; cited from earlier work.

Regarding `COc1cc(Cc2cnc(N)nc2N)c2cc(C)oc2c1OC` [Compound 3, 2,4-Diamino-5-(6,7-dimethoxy-2-methyl-4-benzofuranylmethyl)pyrimidine], the MIC is 0.6 µg/mL (≈ 1.91 µM) with B. fragilis; 0.5 µg/mL (≈ 1.59 µM) with Esch. coli CN314; 0.05 µg/mL (≈ 0.159 µM) in the assay with St. agalactiae CN1143; 0.05 µg/mL (≈ 0.159 µM) in the assay with St. pyogenes CN10; 0.05 µg/mL (≈ 0.159 µM) in the assay on Staph. aureus CN491; 0.05 µg/mL (≈ 0.159 µM) in the assay on St. faecalis CN478. Besides, in the assay on N. gonorrhoeae, the MIC turned out to be 2.8 µg/mL (≈ 8.91 µM).

For `COc1cc(Cc2cnc(N)nc2N)c2c(c1OC)OC(C)C2` (stereo not shown) [Compound 2, 2,4-Diamino-5-(2,3-dihydro-6,7-dimethoxy-2-methyl-4-benzofuranylmethyl)-pyrimidine], the MIC in the assay with B. fragilis is 6.2 µg/mL (≈ 19.6 µM); in the assay with Esch. coli CN314 it was 0.5 µg/mL (≈ 1.58 µM); in the assay on St. agalactiae CN1143 it was 0.5 µg/mL (≈ 1.58 µM); in the assay with St. pyogenes CN10, 0.5 µg/mL (≈ 1.58 µM); in the assay on Staph. aureus CN491, 0.5 µg/mL (≈ 1.58 µM); in the assay with St. faecalis CN478, 0.05 µg/mL (≈ 0.158 µM).

Take `COc1cc(Cc2cnc(N)nc2N)cc(OC)c1OC` [TMP, 2,4-Diamino-5-(3,4,5-trimethoxybenzyl)pyrimidine, reference compound]: the MIC in the assay on B. fragilis was found to be 3.1 µg/mL (≈ 10.7 µM); in the assay with Esch. coli CN314 it was 0.05 µg/mL (≈ 0.172 µM); in the assay with St. agalactiae CN1143, 0.5 µg/mL (≈ 1.72 µM); with St. pyogenes CN10, 0.5 µg/mL (≈ 1.72 µM); with Staph. aureus CN491, 0.5 µg/mL (≈ 1.72 µM); in the assay with St. faecalis CN478, 0.1 µg/mL (≈ 0.344 µM). Also, in the assay on N. gonorrhoeae, the MIC came out at 40 µg/mL (≈ 138 µM). The general antibacterial activity result with bacterial was “most active general antibacterial agent”.

Turning to `COc1cc(Cc2cnc(N)nc2N)c2c(C)c(C)oc2c1OC` [Compound 1, 2,4-Diamino-5-(6,7-dimethoxy-2,3-dimethyl-4-benzofuranylmethyl)pyrimidine], the MIC in the assay with B. fragilis amounted to 25 µg/mL (≈ 76.1 µM); in the assay with Esch. coli CN314 it was 0.5 µg/mL (≈ 1.52 µM); with St. agalactiae CN1143, 5 µg/mL (≈ 15.2 µM); in the assay with St. pyogenes CN10, 5 µg/mL (≈ 15.2 µM); in the assay on Staph. aureus CN491, 0.5 µg/mL (≈ 1.52 µM); in the assay on St. faecalis CN478, 0.5 µg/mL (≈ 1.52 µM). Also, the MIC in the assay with N. gonorrhoeae is 25 µg/mL (≈ 76.1 µM).
